Results published in patent US20100210534A1, “USE OF A PEPTIDE AS A THERAPEUTIC AGENT” (priority 2007, published 2010).
No end group written: not given here.

How the values were obtained:
HIV-1IIIB = assay: HIV-1 antiviral assay in CEM-SS cells (MTS readout of virus-induced cell killing); format: cell-based
HCMV strain AD169 = assay: HCMV plaque formation assay in MRC-5 cells; details: for inhibition of HCMV plaque formation as compared to the virus control: 10 micrograms per ml, 7-10 days
[1] = tested on: hepatitis B virus (HBV) ayw strain; assay: HBV assay in HepG2-2.2.15 cells (secreted HBV DNA by TaqMan PCR); format: cell-based; details: 10 micrograms per ml, six days, HBV DNA in supernatant
[2] = tested on: Primary Human endothelial cells (HUVEC); assay: Endothelial cell migration assay; details: 10 micrograms per ml, 22 hours, combination peptide 1: peptide 2 0.95 mole: 1.05 mole
Experimental: Primary Human endothelial cells (HUVEC) were seeded in insert chambers with 3 micrometer pore size of multi-transwell plate for 6 hours at 37° C. in Endothelial Cell Basal Medium (EBM) supplemented with 0.1% bovine serum albumin. Thereafter, designated concentration of testing peptides—10 micrograms per ml—was added in duplicate wells. The endothelia were allowed to migrate for 22 hours at 37° C., then, migrated cells were fixed and stained with Hoechst 33342 dye. Images of 3 fields per insert were taken and the number of migrated cells per field were quantified using the ImageProPlus software. Data were analyzed for the average number of the migrated cells and standard deviation of six data points for each treatment condition. […] Statistic p values were computed using the Student's t-test.

HUVEC = assay: Endothelial tube formation assay; details: 10 micrograms per ml, 20 hours, combination peptide 1: peptide 2 0.95 mole: 1.05 mole
Experimental: The endothelial tube formation assay is based on the ability of endothelial cells to form three-dimensional capillary-like tubular structures when cultured on a gel of basement membrane extract. […] Pre-labeled HUVEC with Calcein AM were seeded in a 96-well culture plate coated with extracellular metrix (Chemicon international Cat. ECM625) and treated with test peptides—10 micrograms per ml—in full growth medium. Positive control was vehicle only. The endothelial cells were allowed to form tubes foe 20 hours and were then examined under an inverted fluorescent microscope. Duplicate wells for each treatment were photographed and quantitatevily analyzed for an average tubule length using image analysis software ImageProPlus. Raw data were expressed as average tubule lenghs in pixels±standard deviation. Statistic p values were computed using the Student's t-test.

[3] = tested on: spleen cells of Ovalbumin-immunized Balb/c mice; assay: Th1/Th2 cytokine profiling assay (Ovalbumin-restimulated spleen cells, CBA kit); details: 10 micrograms per ml; Ovalbumin restimulation, 72 hours
Text: The Balb/c mice (originated in 1923, it is a popular strain and is used in many different research disciplines. Also classified as an inbred from the production of 20 or more successive brother-sister matings, the Balb/c mouse is albino and small in size) were immunized on Days 1, 15, and 29 with Ovalbumin (Ovalbumin is the main protein found in egg white, commonly used to stimulate an immunological reaction in test animals) in PBS (5 micrograms/injection). On day 50, spleens of the mice were harvested (3 weeks after last boost with Ovalbumin). […] Thereafter, additional Ovalbumin was added to the cells at 10 micrograms/ml for in vitro restimulation of the cells. 72 hours later, cell supernatants were harvested and assayed using the Becton Dickinson Mouse Th1/Th2 Cytokine CBA Kit.

Molecule | antiviral activity of positive control compounds (HIV-1) (HIV-1IIIB) | antiviral activity of positive control compound (HCMV) (HCMV strain AD169; positive control, HCMV AD169) | inhibition of HCMV plaque formation as compared to the virus control (HCMV strain AD169) | inhibition of HBV replication as compared to the virus control infection [1] [%] | inhibition of the migration of human endothelial cells [2] | inhibition of the tube formation endothelial cells (HUVEC) | IFNγ spleen cells; TH1 response (% of control) [3] | IL-2 spleen cells (% of control) [3] | IL-4 spleen cells; TH2 response (% of control) [3] | IL-5 spleen cells; TH2 response (% of control) [3] | TNF-a spleen cells; TH1 response (% of control) [3]
Cc1cn([C@H]2C[C@H](N=[N+]=[N-])[C@@H](CO)O2)c(=O)[nH]c1=O [AZT] | expected levels of antiviral activity |  |  |  |  |  |  |  |  |  | 
Nc1nc(O)c2ncn(COC(CO)CO)c2n1 [Ganciclovir, reference compound] |  | expected levels of antiviral activity |  |  |  |  |  |  |  |  | 
CC(C)(C)NC(=O)[C@@H]1CN(Cc2cccnc2)CCN1C[C@@H](O)C[C@@H](Cc1ccccc1)C(=O)N[C@H]1c2ccccc2C[C@H]1O [indinavir] | expected levels of antiviral activity |  |  |  |  |  |  |  |  |  | 
Ala-Ala-Val-Ala-Leu-Leu-Pro-Ala-Val-Leu-Leu-Ala-Leu-Leu-Ala-Pro-Val-Gln-Arg-Lys-Arg-Gln-Lys-Leu-Met-Pro-OH (AAVALLPAVLLALLAPVQRKRQKLMP-OH) [Peptide 1] |  |  | did not inhibit | 40.7 | did not inhibit | did not inhibit | 63.7 % of control | 153.6 % of control | 118.2 % of control | 74.6 % of control | 108.5 % of control
Arg-Val-Tyr-Ile-His-Pro-Phe-OH (RVYIHPF-OH) [Peptide 2] |  |  | did not inhibit | 44.1 | did not inhibit | 3% | 126.8 % of control | 119.1 % of control | 117.2 % of control | 69.6 % of control | 106.3 % of control
